Results on 7 compounds are retold here after PubChem BioAssay AID1259407 (Chemical Carcinogenesis Research Information System (CCRIS), 2018).

The structures appear in SMILES notation. Calls of active or inactive are those of the source. No rule for the calls is given here.

This data set has as its system CCRIS mutagenicity, Ames/micronucleus/aberration tests. Kind of data set: CCRIS mutagenicity studies.
The mark [1] stands for this setting: Test System: AMES SALMONELLA TYPHIMURIUM, Strain/Indicator: TA98, Metabolic Activation: HAMSTER, LIVER, S-9, AROCLOR 1254 (10%), Method: PREINCUBATION
Setting [2] is: Test System: AMES SALMONELLA TYPHIMURIUM, Strain/Indicator: TA98, Metabolic Activation: RAT, LIVER, S-9, AROCLOR 1254 (10%), Method: PREINCUBATION
The mark [3] stands for this setting: Test System: AMES SALMONELLA TYPHIMURIUM, Strain/Indicator: TA100, Metabolic Activation: HAMSTER, LIVER, S-9, AROCLOR 1254 (10%), Method: PREINCUBATION
The mark [4] stands for this setting: Test System: AMES SALMONELLA TYPHIMURIUM, Strain/Indicator: TA1535, Metabolic Activation: HAMSTER, LIVER, S-9, AROCLOR 1254 (10%), Method: PREINCUBATION
Setting [5] is: Test System: AMES SALMONELLA TYPHIMURIUM, Strain/Indicator: TA1535, Metabolic Activation: NONE, Method: PREINCUBATION
Setting [6] is: Test System: AMES SALMONELLA TYPHIMURIUM, Strain/Indicator: TA1535, Metabolic Activation: RAT, LIVER, S-9, AROCLOR 1254 (10%), Method: PREINCUBATION
The mark [7] stands for this setting: Test System: AMES SALMONELLA TYPHIMURIUM, Strain/Indicator: TA1537, Metabolic Activation: NONE, Method: PREINCUBATION
The mark [8] stands for this setting: Test System: AMES SALMONELLA TYPHIMURIUM, Strain/Indicator: TA98, Metabolic Activation: NONE, Method: STANDARD PLATE.
Setting [9] is: Test System: AMES SALMONELLA TYPHIMURIUM, Strain/Indicator: TA100, Metabolic Activation: NONE, Method: STANDARD PLATE.
Where [10] appears, read: Test System: AMES SALMONELLA TYPHIMURIUM, Strain/Indicator: TA1535, Metabolic Activation: NONE, Method: STANDARD PLATE.
The mark [11] stands for this setting: Test System: AMES SALMONELLA TYPHIMURIUM, Strain/Indicator: TA1537, Metabolic Activation: NONE, Method: STANDARD PLATE.
Where [12] appears, read: Test System: AMES SALMONELLA TYPHIMURIUM, Strain/Indicator: TA98, Metabolic Activation: NONE, Method: PREINCUBATION
Setting [13] is: Test System: AMES SALMONELLA TYPHIMURIUM, Strain/Indicator: TA100, Metabolic Activation: RAT, LIVER, S-9, AROCLOR 1254, Method: STANDARD PLATE.

Consider `O=[N+]([O-])c1cccc(O)c1`, for which the mutagenic call was “inactive; negative” (Test System: AMES SALMONELLA TYPHIMURIUM, Strain/Indicator: TA97, Metabolic Activation: HAMSTER, LIVER, S-9, AROCLOR 1254 (10%), Method: PREINCUBATION); “inactive; negative” (Test System: AMES SALMONELLA TYPHIMURIUM, Strain/Indicator: TA97, Metabolic Activation: NONE, Method: PREINCUBATION); “inactive; negative” (Test System: AMES SALMONELLA TYPHIMURIUM, Strain/Indicator: TA97, Metabolic Activation: RAT, LIVER, S-9, AROCLOR 1254 (10%), Method: PREINCUBATION); “inactive; negative” under setting [1]; “inactive; negative” under setting [2]; “active; positive” (Test System: AMES SALMONELLA TYPHIMURIUM, Strain/Indicator: TA98, Metabolic Activation: RAT, LIVER, S-9, KANECHLOR 500, Method: PREINCUBATION). In addition, the mutagenic call was “inactive; negative” (Test System: AMES SALMONELLA TYPHIMURIUM, Strain/Indicator: TA98, Method: PREINCUBATION); “inactive; negative” under setting [3]; “inactive; negative” (Test System: AMES SALMONELLA TYPHIMURIUM, Strain/Indicator: TA100, Metabolic Activation: RAT, LIVER, S-9, AROCLOR 1254 (5, 10 OR 30%), Method: PREINCUBATION); “active; positive” (Test System: AMES SALMONELLA TYPHIMURIUM, Strain/Indicator: TA100, Metabolic Activation: RAT, LIVER, S-9, KANECHLOR 500, Method: PREINCUBATION); “inactive; negative” (Test System: AMES SALMONELLA TYPHIMURIUM, Strain/Indicator: TA100, Method: PREINCUBATION); “inactive; negative” under setting [4]. In addition, the mutagenic call is, setting by setting: under setting [5], “inactive; negative”; under setting [6], “inactive; negative”; (Test System: AMES SALMONELLA TYPHIMURIUM, Strain/Indicator: TA1535, Method: PREINCUBATION) “inactive; negative”; under setting [7], “inactive; negative”; (Test System: AMES SALMONELLA TYPHIMURIUM, Strain/Indicator: TA1537, Method: PREINCUBATION) “inactive; negative”; (Test System: AMES SALMONELLA TYPHIMURIUM, Strain/Indicator: TA1538, Metabolic Activation: NONE, Method: PREINCUBATION) “inactive; negative”. For the same compound, the mutagenic call (Test System: AMES SALMONELLA TYPHIMURIUM, Strain/Indicator: TA1538, Method: PREINCUBATION) is “inactive; negative”.
With `Nc1ccc(-c2ccc(N)c(O)c2)cc1O`, the mutagenic call under setting [8] was “inactive; negative”; the mutagenic call (Test System: AMES SALMONELLA TYPHIMURIUM, Strain/Indicator: TA98, Metabolic Activation: RAT, LIVER, S-9, AROCLOR, Method: STANDARD PLATE) is “inactive; negative”; the mutagenic call under setting [9] was “active; positive (weak)”; the mutagenic call (Test System: AMES SALMONELLA TYPHIMURIUM, Strain/Indicator: TA100, Metabolic Activation: RAT, LIVER, S-9, AROCLOR, Method: STANDARD PLATE) was “active; positive (weak)”; the mutagenic call under setting [10] is “inactive; negative”; the mutagenic call (Test System: AMES SALMONELLA TYPHIMURIUM, Strain/Indicator: TA1535, Metabolic Activation: RAT, LIVER, S-9, AROCLOR, Method: STANDARD PLATE) is “inactive; negative”. Moreover, the mutagenic call is, setting by setting: under setting [11], “inactive; negative”; (Test System: AMES SALMONELLA TYPHIMURIUM, Strain/Indicator: TA1537, Metabolic Activation: RAT, LIVER, S-9, AROCLOR, Method: STANDARD PLATE) “inactive; negative”.
For the compound `Cc1cn2c(N=O)c(-c3ccc([N+](=O)[O-])cc3)nc2s1`, the mutagenic call runs as follows: under setting [8], “active; positive”; under setting [9], “active; positive”; under setting [10], “inactive; negative”; under setting [11], “inactive; negative”; (Test System: AMES SALMONELLA TYPHIMURIUM, Strain/Indicator: TA1538, Metabolic Activation: NONE, Method: STANDARD PLATE) “active; positive”.
Consider `COC(=O)c1ccccc1C(=O)OC`, for which the mutagenic call was “inactive; negative” (End Point: IN VITRO CHROMOSOMAL ABERRATIONS, Test System: CHO-LB CELLS, Metabolic Activation: NONE); “inactive; negative” (End Point: IN VITRO CHROMOSOMAL ABERRATIONS, Test System: CHO-LB CELLS, Metabolic Activation: RAT, LIVER, S-9, AROCLOR 1254); “inactive; negative” under setting [1]; “inactive; negative” under setting [12]; “inactive; negative” under setting [2]; “inactive; negative” under setting [3]. In addition, the mutagenic call is “inactive; negative” (Test System: AMES SALMONELLA TYPHIMURIUM, Strain/Indicator: TA100, Metabolic Activation: NONE, Method: PREINCUBATION); “inactive; negative” (Test System: AMES SALMONELLA TYPHIMURIUM, Strain/Indicator: TA100, Metabolic Activation: RAT, LIVER, S-9, AROCLOR 1254 (10%), Method: PREINCUBATION); “inactive; negative” under setting [13]; “inactive; negative” (Test System: AMES SALMONELLA TYPHIMURIUM, Strain/Indicator: TA100, Metabolic Activation: S-9, Method: STANDARD PLATE); “inactive; negative” under setting [4]; “inactive; negative” under setting [5]. For the same compound, the mutagenic call under setting [10] was “inactive; negative”; the mutagenic call under setting [6] was “inactive; negative”; the mutagenic call (Test System: AMES SALMONELLA TYPHIMURIUM, Strain/Indicator: TA1535, Metabolic Activation: S-9, Method: STANDARD PLATE) is “inactive; negative”; the mutagenic call (Test System: AMES SALMONELLA TYPHIMURIUM, Strain/Indicator: TA1537, Metabolic Activation: HAMSTER, LIVER, S-9, AROCLOR 1254 (10%), Method: PREINCUBATION) is “inactive; negative”; the mutagenic call under setting [7] was “inactive; negative”; the mutagenic call (Test System: AMES SALMONELLA TYPHIMURIUM, Strain/Indicator: TA1537, Metabolic Activation: RAT, LIVER, S-9, AROCLOR 1254 (10%), Method: PREINCUBATION) was “inactive; negative”. In addition, the mutagenic call by setting is: (Test System: MOUSE LYMPHOMA, Strain/Indicator: L5178Y (TK+/TK-), Metabolic Activation: NONE, Method: SUSPENSION/PLATE) “inactive; negative”; (Test System: MOUSE LYMPHOMA, Strain/Indicator: L5178Y (TK+/TK-), Metabolic Activation: RAT LIVER S-9, Method: SUSPENSION/PLATE) “active; positive”.
In the case of `O=c1c2c(c3c(ccc4ccc[nH]c43)c1O)O2`, the mutagenic call under setting [9] was “active; positive”.
Turning to `CN1Cc2c(N)cccc2C(c2ccccc2)C1` (configuration not stated), the mutagenic call runs as follows: under setting [8], “inactive; negative”; (Test System: AMES SALMONELLA TYPHIMURIUM, Strain/Indicator: TA98, Metabolic Activation: RAT, LIVER, S-9, AROCLOR 1254, Method: STANDARD PLATE) “inactive; negative”; under setting [9], “inactive; negative”; under setting [13], “inactive; negative”; under setting [10], “inactive; negative”; (Test System: AMES SALMONELLA TYPHIMURIUM, Strain/Indicator: TA1535, Metabolic Activation: RAT, LIVER, S-9, AROCLOR 1254, Method: STANDARD PLATE) “inactive; negative”. The mutagenic call runs as follows: under setting [11], “inactive; negative”; (Test System: AMES SALMONELLA TYPHIMURIUM, Strain/Indicator: TA1537, Metabolic Activation: RAT, LIVER, S-9, AROCLOR 1254, Method: STANDARD PLATE) “inactive; negative”.
For the compound `Cc1c2ccccc2c(COS(=O)(=O)O)c2ccc3ccccc3c12`, under setting [12], the mutagenic call was “active; positive”.
